Data taken from patent publication US9421197B2, “Methods of generating hyper INOS expressing cells and uses thereof” (CASE WESTERN RESERVE UNIVERSITY, priority 2010, dated 2016).

Key:
excisional wounds = assay: inflammatory wound model: wound healing curves; format: in vivo, mice; details: for day by which wounds healed: IL6−/− mice, inflammatory wound treatment, agent given i.p.
NF-κB p65 and STAT3 = assay: Western blot of nuclear NF-κB p65 and STAT3 in thioglycollate-elicited macrophages; format: cell-based, mice; details: reconstitution of IL6−/− macrophages
Method: Mice were injected i.p. with 2 ml of thioglycollate and sacrificed 24 hours later mice by cervical dislocation. Lavage was performed by infusing 5 ml of 40 C DPBS into the peritoneal cavity. The fluid sample is recovered by aspirating the liquid with a syringe. 80%±21% of instilled fluid volume is recovered. Macrophages were harvested following centrifugation of the BAL fluid.
NE-PER kit (Thermo Scientific) was used to extract nuclear and cytoplasmic protein from peritoneal macrophages. Protein samples were prepared under reduced conditions and western blot analysis was performed using a standard protocol (Invitrogen). Stat3 (79D7) Rabbit mAb, NF— xB p65, β-actin (13E5) Rabbit mAb (Cell Signaling Technology, Danvers, Mass.) were used for western blot evaluation. Densiometry analyzed by Biorad VersaDoc imaging system.

peritoneal macrophages = assay: thioglycollate-induced peritonitis, peritoneal macrophages analyzed ex vivo by RT-PCR; details: IL6−/− mice treated in vivo
Method: For RT-PCR analysis, RNA was isolated using Trizol (Invitrogen) following the manufacturer's instructions, and was reverse-transcribed and quantified using Applied Biosystems TaqMan® RNA-to-CT™ 1-Step Kit, TaqMan® Gene Expression Assays for 18 s RNA, iNOS II, […], and IL-1β, and Step-One™ System. Cycle time, temperature, and number were based on Applied Biosystems recommendations.
Mice were injected i.p. with 2 ml of thioglycollate and sacrificed 24 hours later mice by cervical dislocation. Lavage was performed by infusing 5 ml of […] DPBS into the peritoneal cavity. The fluid sample is recovered by aspirating the liquid with a syringe. 80%±21% of instilled fluid volume is recovered. Macrophages were harvested following centrifugation of the […].

[1] = therapeutic doses; FDA alert May 21, 2007; cited from earlier work
iNOS and TNF-α mRNA = assay: inflammatory wound model: iNOS and TNF-α expression in skin; format: in vivo; details: IL6−/− mice, combined wounding, UVB and topical rosiglitazone, 24 hours
Method: Cycle time, temperature, and number were based on Applied Biosystems recommendations. Skin was wounded with some modifications. Mice were treated with 3-6 mm excisional wounds, one midline and two on each side of the midline. […] Wounds were measured and treated with topical rosiglitazone solution daily until healed (loss of serum crust and reepithelialization). Lung Treatment and Preparation […] All other reagents were purchased from sigma.

CC(=N)NCc1cccc(CN)c1 [1400 W]
day by which wounds healed (excisional wounds): 14 days

rIL-6: recombinant IL-6 (R&D Systems)
day by which wounds healed (excisional wounds): 11 days | STAT3 and NF-kB levels (NF-κB p65 and STAT3): restores STAT3 and NF-kB levels similar to wildtype conditions

O=C(Nc1ccccc1)c1cc([N+](=O)[O-])ccc1Cl [GW9662]
iNOS expression (peritoneal macrophages): No significant increase

CN(CCOc1ccc(CC2SC(=O)NC2=O)cc1)c1ccccn1 (centres unmarked) [rosiglitazone]
delay of wound closure (excisional wounds; IL6−/− mice compared to wildtype, inflammatory wound protocol): 8 days | risk of heart attack [1]: substantially increased risk | increase in TNF-α mRNA expression (iNOS and TNF-α mRNA): 13 fold | increase in iNOS mRNA expression (iNOS and TNF-α mRNA): 20 fold
